Experimental data published in patent US8709406B2, “Prevention and treatment of oxidative stress disorders by gluthathione and phase II detoxification enzymes” (Brassica Foundation for ChemoProtection Research, priority 2001, dated 2014).

What was measured:
glutathione = details: ARPE-19
Experimental: (§1) Cells were lysed by addition of a digitonin solution (0.8 mg/ml digitonin in 2 mM EDTA, pH 7.8), incubated at 37° C. for 20 min, gently shaken for 20 min at 25° C., and centrifuged at 1,500×g for 20 min at 4° C.
Total glutathione (oxidized and reduced) was determined by reduction of 5,5′-dithiobis-2-nitrobenzoic acid (DTNB) in a glutathione reductase-coupled assay in 96-well microliter plates (Ritchie, J. P., Jr., Skowronski, L., Abraham, P. & Leutzinger, Y. (1996) Clin. Chem. 42, 64-70). Briefly, 30 μl of lysates were mixed with 60 μl of cold 2.5% metaphosphoric acid, stored at 4° C. for 10 min, and centrifuged for 20 min at 1,500×g at 4° C. […] After 5 min incubation at 25° C., 50 μl of 0.72 mM NADPH were added to each well, and the initial reaction rates were determined at 412 nm. Calibration curves for pure GSH were included in each assay.

[1] = test system: glucose 6-phosphate dehydrogenase; details: ARPE-19; sulforaphane 0.625 and 2.5 μM 24 h, then medium without inducer
Experimental: as §1
All measurements were made in 96-well microtiter plates at 25° C., and reaction rates were monitored with a microtiter plate reader. The QR activities of supernatant fractions were determined by procedures developed in our laboratory (Fahey, J. W., Zhang, Y. & Talalay, P. (1997) Proc. Natl. Acad. Sci. USA 94, 10367-10372; Prochaska, H. J., Santamaria, A. B. & Talalay, P. (1992) Proc. Natl. Acad. Sci. USA 89, 2394-2398.). Specific activities were obtained by relating the reaction rates to protein concentrations determined with the bicinchoninic acid reagent (Smith, P. K., Krohn, R. I., Hermanson, G. T., Mallia, A. K., Gratner, F. H., Provenzano, M. D., Fujimoto, E. K., Goeke, N. M., Olson, B. J. & Klenk, D. C. (1985) Anal. Biochem. 150, 76-85). […] Glutathione reductase activity was assayed by mixing 50 μl of cell lysate with 25 μl of 1 mM NADPH, 25 μl of GSSG (20 mg/ml), and 150 μl of 50 mM sodium phosphate, pH 7.5. Initial reaction rates were obtained at 340 nm (Carlberg, I. & Mannervik, B. (1985) Methods Enzymol. 113, 484-490).

`C[S+]([O-])CCCCN=C=S` (stereo not drawn) [Sulforaphane] was tested. Which “concentrations of GSH in cytosols” value (glutathione; sulforaphane 0-5.0 μM 24 h) did it give?
The value was “rose with exposure to increasing concentrations of sulforaphane”.

And the “increase of GSH levels” value (glutathione; sulforaphane 2.5 μM 24 h)?
The value was “about 50%”.

What about the “specific activity of glucose 6-phosphate dehydrogenase after removal of sulforaphane” value [1] of the same compound?
Its value is “continued to rise for 48 h after removal of sulforaphane”.
